pEC50: −log10 of the molar value.
What was measured:
S1P4 [1] = biological target: T1, S1P4 (Homo sapiens, UniProt O95977); test: Calcium mobilization assay, CHO cells expressing S1P4; format: cell-based
T1 construct: expressed in transfected cells
T1 sequence (O95977 1-384): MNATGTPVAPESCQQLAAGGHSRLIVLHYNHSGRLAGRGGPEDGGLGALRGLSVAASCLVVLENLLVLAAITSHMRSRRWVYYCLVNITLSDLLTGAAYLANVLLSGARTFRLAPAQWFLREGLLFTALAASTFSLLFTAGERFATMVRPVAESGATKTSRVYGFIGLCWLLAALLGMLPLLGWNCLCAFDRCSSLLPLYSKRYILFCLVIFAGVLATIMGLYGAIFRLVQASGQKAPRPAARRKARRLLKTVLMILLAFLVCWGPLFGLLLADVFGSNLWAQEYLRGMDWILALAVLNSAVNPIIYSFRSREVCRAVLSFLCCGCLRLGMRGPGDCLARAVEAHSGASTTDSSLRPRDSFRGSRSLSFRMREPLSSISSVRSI
Protocol: (§1) An expression vector for the human S1P4 gene (HSEDG4; GenBank Accession Number AJ000479) fused to the c-myc peptide tag at the C-terminus is obtained as described in Van Brocklyn et al. 2000, Blood 95(8), 2624. The encoding DNA for the S1P4-myc fusion protein is cloned in the mammalian expression vector pRc/CMV (Invitrogen), which confers G418 resistance for the selection of stable mammalian cells. The DNA sequence of the S1P4 insert is determined on both strands. […] The S1P4-myc cDNA is inserted into the pRc/CMV vector using HindIII/XbaI.
(§2) To develop stable cell lines expressing the c-myc tagged S1P4 receptor 5 μg of plasmid pRc/CMV myc-S1P4 is cut using restriction endonuclease PvuI, which cleaves the plasmid once. The linearized plasmid is then precipitated using a final concentration of 0.3M sodium acetate, pH5.0 and 66% ethanol. […] Individual clones that grew after the sort and selection procedure are expanded and one clone is finally selected based on the level of S1P4 mRNA expression determined by TaqMan quantitative PCR analysis.
CHO cells are plated in black Costar plate (96 or 384 well, 50,000 cells or 12,500 cells, respectively) in a MEM with FCS and cultured for 20-24 h at 37° C. in a CO2 incubator. […] After measuring the baseline for 40 sec, the agonist in HBSS is added and the fluorescence is measured at intervals of 2 sec for 3 to 5 min. […]

S1P4 [2] = biological target: T1, S1P4; test: GTPγS binding assay, S1P4; format: biochemical; details: CHO cells expressing S1P4
Protocol: as §1
as §2, with “ethanol. After centrifugation and washing, the DNA pellet is dissolved in 30 μl water.” for “ethanol.”
Membrane proteins are prepared from wild type CHO-K1 and the CHO cell clones expressing human S1P4. […] The protein concentration is determined using the Bio Rad Protein Assay and human IgG as standard. […]

## NC(CNC(=O)c1cc2c(-c3ccccc3Cc3ccccc3)cccc2[nH]1)C(=O)O (centres unmarked) [Example 2]
S1P4 [1]
  pEC50: 8.00
S1P4 [2]
  pEC50: 6.60
